We go through eight molecules from US20110275703A1, “SUBSTITUTED SPIROKETAL DERIVATIVES AND USE THEREOF AS THERAPEUTIC DRUG FOR DIABETES” (CHUGAI SEIYAKU KABUSHIKI KAISHA, priority 2007, published 2011).

Broadly, the pIC50 is −log10 of the IC50, conventionally taken in molar units.

The assay deals with T1, human SGLT1 (Homo sapiens, UniProt P13866).
T1 construct: expressed in transfected cells; host or cells: CHO-K1
T1 sequence (P13866 1-664): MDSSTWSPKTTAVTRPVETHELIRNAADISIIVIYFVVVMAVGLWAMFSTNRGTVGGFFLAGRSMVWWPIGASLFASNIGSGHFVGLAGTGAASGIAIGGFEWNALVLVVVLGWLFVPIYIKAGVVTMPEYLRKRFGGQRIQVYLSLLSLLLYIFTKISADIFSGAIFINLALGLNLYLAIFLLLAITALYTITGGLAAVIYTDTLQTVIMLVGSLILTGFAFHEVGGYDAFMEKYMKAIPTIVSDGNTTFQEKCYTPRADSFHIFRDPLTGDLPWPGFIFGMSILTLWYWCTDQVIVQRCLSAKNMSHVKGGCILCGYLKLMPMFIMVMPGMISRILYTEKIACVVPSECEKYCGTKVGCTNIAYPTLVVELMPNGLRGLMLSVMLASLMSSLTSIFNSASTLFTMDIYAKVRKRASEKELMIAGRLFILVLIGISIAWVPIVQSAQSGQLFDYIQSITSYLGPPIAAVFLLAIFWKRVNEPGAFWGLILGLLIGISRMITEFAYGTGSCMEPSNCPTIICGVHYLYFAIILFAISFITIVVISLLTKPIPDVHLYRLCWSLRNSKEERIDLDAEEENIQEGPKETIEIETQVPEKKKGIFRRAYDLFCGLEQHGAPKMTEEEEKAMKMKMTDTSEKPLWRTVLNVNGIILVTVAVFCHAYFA
Description: Inhibitory activity against methyl-α-D-glucopyranoside uptake, CHO cells stably expressing human SGLT1. It counts as cell-based. To be noted: Table 2-2; read-out: hSGLT1 IC50 value. The source says: Evaluation of inhibitory activity against methyl-α-D-glucopyranoside uptake of human Na^+-glucose cotransporter (SGLT1 and SGLT2)
1) Construction of Human SGLT1 Expression Vector
Human SGLT1 cDNA was amplified by PCR with a cDNA library derived from human small intestine (Clontech) as a template, synthetic DNA primers and KOD+ DNA Polymerase (Toyobo Co., Ltd., Japan). The amplified cDNA was inserted into pcRII-Topo vector by using a Topo TA Cloning Dual Promoter kit (Invitrogen). E. coli competent cells (Invitrogen, TOP10) were transformed with the plasmid vector, cultured in LB medium containing ampicillin (50 mg/L) to grow ampicillin-resistant clones. The plasmid vector containing human SGLT1 cDNA was purified from the clone in a standard manner (see Maniatis et al., Molecular Cloning). Human SGLT1 cDNA added restriction enzyme recognition sites (Eco RI at 5′-end, Hind III at 3′-end) was amplified by PCR with the plasmid vector as a template, synthetic DNA primers containing an additional restriction enzyme recognition site, and KOD+ DNA Polymerase. This amplified cDNA was digested with Eco RI and Hind III and ligated into expression vector pcDNA3.1(−) (Invitrogen) digested with Eco RI and Hind III by a Rapid DNA Ligation kit (Roche Diagonostics). E. coli competent cells (Invitrogen, DH5α) were transformed with the ligated expression vector and grown in ampicillin-containing LB medium. Human SGLT1 expression vector was purified from the ampicillin-resistant clone in a standard manner.
3) Establishment of Cell Lines Stably Expressing Human SGLT1 or Human SGLT2
The human SGLT1 expression vector or the human SGLT2 expression vector was digested with the restriction enzyme Pvu I and transfected into CHO-Kl cells with FuGENE (Roche Diagonostics). After the transfection, the cells were cultured at 37° C. in the presence of 5% CO2 for about 3 weeks in DMEM medium (Gibco) containing penicillin (50 U/mL, SIGMA), streptomycin (50 mg/L, SIGMA), geneticin (200 mg/L, Nacalai Tesque, Inc., Japan) and 20% fetal bovine serum to obtain geneticin-resistant clones. Among these clones, clones stably expressing human SGLT1 or human SGLT2 were selected by the evaluating the sodium-dependent uptake activity of sugar (methyl-α-D-glucopyranoside).
4) Evaluation of Inhibitory Activity Against methyl-α-D-glucopyranoside uptake
Cell lines stably expressing human SGLT1 or human SGLT2 CHO were seeded in 96-well culture plates at a density of 30000 to 40000 cells/well and cultured for 4 to 6 days. The medium in these plates was removed and replaced by 150 μL/well pretreatment buffer (i.e., a buffer containing 140 mM choline chloride, 2 mM potassium chloride, 1 mM calcium chloride, 1 mM magnesium chloride, 10 mM 2-[4-(2-hydroxyethyl)-1-piperazinyl]ethanesulfonic acid and tris(hydroxymethyl)aminomethane, pH 7.4), and the plates were incubated at 37° C. for 20 minutes. The pretreatment buffer in the plates was removed, replaced by 50 μL/well fresh pretreatment buffer, and the plates were incubated at 37° C. for 20 minutes. Methyl-α-D-(U—^14C)glucopyranoside (6.3 mL, Amersham Pharmacia Biotech, 200 mCi/L) was added to and mixed with 100 mL buffer (i.e., a buffer containing 140 mM sodium chloride, 2 mM potassium chloride, 1 mM calcium chloride, 1 mM magnesium chloride, 1 mM methyl-α-D-glucopyranoside, 10 mM [4-(2-hydroxyethyl)-1-piperazinyl]ethanesulfonic acid and tris(hydroxymethyl)aminomethane, pH 7.4), which was used as uptake buffer. Test compounds were dissolved into uptake buffer and these test compound solutions were used for evaluating inhibitory activity. Uptake buffer without a test compound was used as a control solution. Moreover, for use in measuring baseline uptake in the absence of sodium, sodium-free solution was prepared in the same manner to contain 140 mM choline chloride instead of sodium chloride. […]

pIC50: −log10 of the molar value.

Turning to `CCc1ccc(Cc2cc3c(cc2C)CO[C@]32O[C@H](CO)[C@@H](O)[C@H](O)[C@H]2O)cc1` [Comparative Compound 1, 1,1-anhydro-1-C-[5-(4-ethylphenyl)methyl-2-(hydroxymethyl)-4-methylphenyl]-β-glucopyranose, reference compound], the pIC50 was 6.88.

Regarding `CCc1ccc(Cc2cc3c(cc2Cl)CO[C@]32O[C@H](CO)[C@@H](O)[C@H](O)[C@H]2O)cc1` [Example 1, (1S,3′R,4′S,5′S,6′R)-5-chloro-6-[(4-ethylphenyl)methyl]-3′,4′,5′,6′-tetrahydro-6′-(hydroxymethyl)-spiro[isobenzofuran-1(3H),2′-[2H]pyran]-3′,4′,5′-triol], the pIC50 is 6.70.

Take `CCOc1ccc(Cc2cc3c(cc2Cl)CO[C@]32O[C@H](CO)[C@@H](O)[C@H](O)[C@H]2O)cc1` [Example 5, (1S,3′R,4′S,5′S,6′R)-5-chloro-6-[(4-ethoxyphenyl)methyl]-3′,4′,5′,6′-tetrahydro-6′-(hydroxymethyl)-spiro[isobenzofuran-1(3H),2′-[2H]pyran]-3′,4′,5′-triol]: the pIC50 is 6.37.

Turning to `OC[C@H]1O[C@]2(OCc3cc(Cl)c(Cc4ccc5ccccc5c4)cc32)[C@H](O)[C@@H](O)[C@@H]1O` [Example 7, (1S,3′R,4′S,5′S,6′R)-5-chloro-3′,4′,5′,6′-tetrahydro-6′-(hydroxymethyl)-6-(2-naphthylmethyl)-spiro[isobenzofuran-1(3H),2′-[2H]pyran]-3′,4′,5′-triol], the pIC50 was 6.42.

Consider `OC[C@H]1O[C@]2(OCc3cc(Cl)c(Cc4ccc(CCF)cc4)cc32)[C@H](O)[C@@H](O)[C@@H]1O` [Example 8, (1S,3′R,4′S,5′S,6′R)-5-chloro-6-[(4-(2-fluoroethyl)phenyl)methyl]-3′,4′,5′,6′-tetrahydro-6′-(hydroxymethyl)-spiro[isobenzofuran-1(3H),2′-[2H]pyran]-3′,4′,5′-triol], for which the pIC50 is 6.45.

`CCCc1ccc(Cc2cc3c(cc2Cl)CO[C@]32O[C@H](CO)[C@@H](O)[C@H](O)[C@H]2O)cc1` [Example 9, (1S,3′R,4′S,5′S,6′R)-5-chloro-3′,4′,5′,6′-tetrahydro-6′-(hydroxymethyl)-6-[(4-propylphenyl)methyl]-spiro[isobenzofuran-1(3H),2′-[2H]pyran]-3′,4′,5′-triol]: the pIC50 was 5.87.

For `CC(C)c1ccc(Cc2cc3c(cc2Cl)CO[C@]32O[C@H](CO)[C@@H](O)[C@H](O)[C@H]2O)cc1` [Example 15, (1S,3′R,4′S,5′S,6′R)-5-chloro-3′,4′,5′,6′-tetrahydro-6′-(hydroxymethyl)-6-[(4-isopropylphenyl)methyl]-spiro[isobenzofuran-1(3H),2′-[2H]pyran]-3′,4′,5′-triol], the pIC50 was 5.99.

In the case of `Cc1cc2c(cc1Cc1ccc(C(C)C)cc1)[C@]1(OC2)O[C@H](CO)[C@@H](O)[C@H](O)[C@H]1O` [Example 21, (1S,3′R,4′S,5′S,6′R)-3′,4′,5′,6′-tetrahydro-6′-(hydroxymethyl)-6-[(4-isopropylphenyl)methyl]-5-methyl-spiro[isobenzofuran-1(3H),2′-[2H]pyran]-3′,4′,5′-triol], the pIC50 is 6.17.
